The text below walks through data of patent publication US7754701B2, “Difructose anhydride-containing composition and use thereof” (Fancl Corporation, priority 2002, dated 2010).

The test system of series [1] is small intestines (jejunum and ileum) and large intestines (cecum and colon) mucous membrane specimen. The series can be described thus: Copper absorption in Ussing chamber. Further details: species or system rat. As to conditions: DFA III 0 to 100 mM, FIG. 3.
The nature of series [2]: Diuretic test using DFA III. The series is classed as in vivo, human. From the text: DFA III was made into granules to make a granular food product. Since granulation was possible without excipient, the DFA content was 100%. Six healthy males were given with 1 g/day of this granular food product together with water consecutively for 1 week in the first period of the test. Then, after a week of the washout period, the same 6 healthy subjects were given with 1 g/day of sugar together with water consecutively for 1 week in the second period of the test.
During the test periods, all subjects lived under the same environment, doing the same level of exercise and taking the same amount of diet and drinking water. The whole volume of urine excreted during the test periods was recovered and the volume was measured to obtain a daily average urine volume to compare the two test periods.

Series [3] relates to serum osteocalcin. The series can be described thus: Bone formation in human: serum osteocalcin, DFA III with calcium carbonate (Example 5). The class given is in vivo. As to conditions: 1 g DFA III and 0.25 g calcium carbonate 3 times a day for 2 weeks vs calcium carbonate alone; fourteen healthy adult males; FIG. 5. Here is the method: Fourteen healthy adult males were administered with 1 g of DFA III and 0.25 g of calcium carbonate or 0.25 g of placebo (calcium carbonate) 3 times a day for 2 weeks to study the change in serum osteocalcin concentration.

The test system of series [4] is small intestines (jejunum and ileum) and large intestines (cecum and colon) mucous membrane specimen. The series can be described thus: Magnesium absorption in Ussing chamber. On the set-up: species or system rat. As to conditions: DFA III 0, 1, 10, 100 mM on mucous membrane side, 37° C., 30 minutes, FIG. 1. How it is done: Acceleration of magnesium absorption by DFA III was confirmed by using an Ussing chamber as follows.
In this experiment, 7 to 8 weeks old Sprague-Dawley male rats (with an average body weight of about 260 g) were used.
The rats were purchased at 6 weeks of age (Japan SLC) and fed on a commercial solid feed (CE-2, Japan CLEA) until the start of the experiment.
On the day of the experiment, rats were injected intraperitoneally with sodium pentobarbital and the small intestines (cejunum and ileum) and the large intestines (cecum and colon) were extracted under the anaesthetization. Contents of each of the intestines were removed, the intestines were opened, and the serous membrane and the layer of smooth muscle were peeled off to prepare a specimen comprising the mucous membrane and submucosal tissue, which was then loaded onto an Ussing chamber (with an effective area of 0.67 cm^2).
Separately, a buffer solution for the mucous membrane side and a buffer solution for serous membrane side were prepared. The buffer solution for mucous membrane side was basically comprised of the following ingredients. […]
After the incubation was completed, the solution of serous membrane side was recovered and the Mg concentration in the solution was measured using a commercial kit (Wako Pure Chemicals). […]

Series [5] relates to Streptococcus mutans MT 8148. The series can be described thus: Acid production by Streptococcus mutans, DFA and palatinose (Example 10), strain MT 8148. The class given is cell-based. As to conditions: 10 ml of 1% solution added to 2 ml cell suspension, 37° C., FIG. 7. How it is done: (§1) Dental caries causative bacteria (Streptococcus mutans) MT 8148 and 6715 strains provided by a microbial lineage storage laboratory of The Institute of Physical Chemical Research (Riken) were cultured on a brain heart infusion broth medium overnight and then cells were collected by centrifugation. The cells were washed twice with a phosphate buffered (5 mM) physiological saline solution (pH 7.0) and then suspended in the same saline solution. Ten milliliters each of a 1% palatinose solution, 1% DFA III, a 1% palatinose solution with 1% DFA III added were added to 2 ml of this concentrated cell suspension. Immediately, reaction was carried out at 37° C. and then change with time in pH of each reaction mixture was measured.

Series [6] deals with Streptococcus mutans MT 8148. The series can be described thus: Acid production by Streptococcus mutans (Example 9), strain MT 8148. The class given is cell-based. As to conditions: 10 ml of 5% solution added to 2 ml cell suspension, 37° C., FIG. 6. How it is done:
as §1, with “5%” for “a 1% palatinose solution, 1%”, “sorbitol, palatinose, xylitol, and sucrose solutions” for “a 1% palatinose solution with 1% DFA III added”

The nature of series [7]: Effectiveness on defecation in human. The series is classed as in vivo. As to conditions: 3 g once a day for one month; for Feeling of defecation: Much better (number of subjects) / Feeling of defecation: No change (number of subjects) / Feeling of defecation: Slightly better (number of subjects) / Feeling of defecation: Slightly worse (number of subjects) / Feeling of defecation: Worse (number of subjects) / Stool properties, change observed: Constipation (worse after ingestion; number of subjects) / Stool properties, change observed: Normal stool (number of subjects) / Stool properties, change observed: Soft stool (number of subjects) / Stool properties, change observed: Solid stool (number of subjects) / Stool properties: No change (number of subjects): fifty adults; for Stool properties, change observed: Diarrhea (number of subjects): fifty adults with tendency of constipation. How it is done:
Fifty adults who were healthy but aware of their poor stool frequency and tendency of constipation were given with 3 g of DFA III, 3 g of melibiose or 3 g of placebo (starch) once a day for one month. The defecation condition was recorded and stool properties and feeling of defecation were studied.

The subject of series [8] is small intestines (jejunum and ileum) and large intestines (cecum and colon) mucous membrane specimen. The series can be described thus: Zinc absorption in Ussing chamber. As to conditions: DFA III 0 to 100 mM, FIG. 2. On the set-up: species or system rat.
A further series deals with mice. The series can be described thus: Acute toxicity test in mice. The class given is in vivo. As to conditions: 10 days, 1000 mg/kg of oral administration. The source says:
Further, DFA, an effective component of the invention, has no problem in its safety.

Series [9] concerns serum osteocalcin. The series can be described thus: Bone formation in human: serum osteocalcin, DFA III alone (Example 6). The series is classed as in vivo. As to conditions: 3 g DFA III 3 times a day for 2 weeks. Here is the method: Twenty-three healthy adult males and females on normal diet were administered with 3 g of DFA III 3 times a day for 2 weeks to study the change in serum osteocalcin concentration.

The subject of series [10] is serum osteocalcin. The series can be described thus: Bone formation in human: serum osteocalcin, DFA III with calcium lactate (Example 4). As to conditions: 3 g DFA III and 0.77 g calcium lactate 3 times a day for 1 week vs calcium lactate alone; six healthy adult males; FIG. 4. The class given is in vivo. Here is the method:
Six healthy adult males were administered with 3 g of DFA III and 0.77 g of calcium lactate or 0.77 g of placebo (calcium lactate) 3 times a day for 1 week to study the change in serum osteocalcin concentration.

SMILES strings stand for the structures. Values joined by “and” are separate entries in the source; they are usually repeats but may differ in a detail not shown here. Identical values can stand only once.

With `OC[C@H]1O[C@@]2(CO[C@]3(CO)O[C@H](CO)[C@@H](O)[C@@H]3O2)[C@@H](O)[C@@H]1O` [DFA III, difructose anhydride III], in series [1], the “Cu absorption (net rate, mucous to serous membrane side)” value is “evidently increased”. The “Average daily urine volume” value in series [2] (1 g/day DFA III granular food product with water for 1 week, individual subjects A-F, healthy males) was 2600 mL and 2950 mL and 2560 mL and 2850 mL and 3010 mL and 2050 mL. Also, the abnormal subjective findings entry in series [2] (1 g/day for 1 week) is on record as “no abnormal subjective findings”. The “average daily urine volume, first vs second test period” value in [2] (all individual subjects, DFA III 1 g/day vs sugar 1 g/day) is given as “evidently greater”. Besides, the “biochemical blood tests (liver function, renal function, blood pressure, blood cell counts, total Chol, TG)” value in [2] (first test period (DFA III) vs second test period (sugar)) is on record as “the same”. For the same molecule, the “level of osteocalcin (serum), change” value in the series on serum osteocalcin [3] was “increased more”. Moreover, the “Mg absorption (net rate, mucous to serous membrane side)” value in series [4] is given as “evidently increased”. The “acid production (change with time in pH of reaction mixture)” value in series [5] is on record as “almost no acid was produced”. For the same molecule, in series [6], the “acid production (change with time in pH of reaction mixture)” value is listed as “almost no acid”. Further, in [7], the “Feeling of defecation: Much better (number of subjects)” value is given as 23, the “Feeling of defecation: No change (number of subjects)” value is 0, the “Feeling of defecation: Slightly better (number of subjects)” value is listed as 27 and the “Feeling of defecation: Slightly worse (number of subjects)” value is recorded as 0. In [7], the “Feeling of defecation: Worse (number of subjects)” value stood at 0; the “Stool properties, change observed: Constipation (worse after ingestion; number of subjects)” value was 0; the “Stool properties, change observed: Normal stool (number of subjects)” value came to 39; the “Stool properties, change observed: Soft stool (number of subjects)” value turned out to be 7. For the same molecule, in series [7], the “Stool properties, change observed: Solid stool (number of subjects)” value worked out at 3; the “Stool properties: No change (number of subjects)” value came out at 0; the “Stool properties, change observed: Diarrhea (number of subjects)” value was 0. Moreover, the “Zn absorption (net rate, mucous to serous membrane side)” value in [8] is “evidently increased”. In addition, the “acute toxicity (death)” value with mice was “no death”. Besides, the “level of osteocalcin, change by ingestion” value with serum osteocalcin [9] (no added calcium) was “increased”. The “Serum osteocalcin concentration, After ingestion” value in the series on serum osteocalcin [9] (23 healthy adults on normal diet, Average ± SD) was found to be 5.7 ± 1.5 ng/mL. In the series with serum osteocalcin [9] (23 healthy adults on normal diet, Average ± SD, *p < 0.1), the “Serum osteocalcin concentration, Before ingestion” value is on record as 7.0 ± 2.0* ng/ml. In addition, the “level of osteocalcin (serum), change” value in the series on serum osteocalcin [10] is recorded as “increased more”.

As for `OC[C@H]1O[C@H](OCC2O[C@@H](O)[C@H](O)[C@@H](O)[C@@H]2O)[C@H](O)[C@@H](O)[C@H]1O` (stereo partly shown) [melibiose], in series [7], the “Feeling of defecation: Much better (number of subjects)” value is on record as 22, the “Feeling of defecation: No change (number of subjects)” value is 0, the “Feeling of defecation: Slightly better (number of subjects)” value turned out to be 28 and the “Feeling of defecation: Slightly worse (number of subjects)” value is listed as 0. In series [7], the “Feeling of defecation: Worse (number of subjects)” value is on record as 0; the “Stool properties, change observed: Constipation (worse after ingestion; number of subjects)” value stood at 0; the “Stool properties, change observed: Normal stool (number of subjects)” value was 40; the “Stool properties, change observed: Soft stool (number of subjects)” value stood at 8. Further, in [7], the “Stool properties, change observed: Solid stool (number of subjects)” value was 2; the “Stool properties: No change (number of subjects)” value amounted to 0; the “Stool properties, change observed: Diarrhea (number of subjects)” value is 0.

For `OC[C@H]1O[C@H](OC[C@H]2OC(O)(CO)[C@@H](O)[C@@H]2O)[C@H](O)[C@@H](O)[C@@H]1O` (stereo partly shown) [palatinose, reference compound], the results for the “acid production (change with time in pH of reaction mixture)” value in series [5] and in series [6] were “acid was produced” and “almost no acid”, respectively.

For `OC[C@@H](O)[C@@H](O)[C@H](O)[C@@H](O)CO` [sorbitol], the “acid production (change with time in pH of reaction mixture)” value in series [6] is listed as “almost no acid”.

Regarding `OC[C@H]1O[C@@](CO)(O[C@H]2O[C@H](CO)[C@@H](O)[C@H](O)[C@H]2O)[C@@H](O)[C@@H]1O` [sucrose], the “acid production (change with time in pH of reaction mixture)” value in series [6] is “evidently lowered the pH”.

Regarding `OC[C@H]1O[C@@](CO)(O[C@H]2O[C@H](CO)[C@@H](O)[C@H](O)[C@H]2O)[C@@H](O)[C@@H]1O` [sugar, reference compound], in series [2] (1 g/day sugar with water for 1 week after 1 week washout, same subjects A-F), the “Average daily urine volume” value is 1620 mL and 1760 mL and 1650 mL and 1250 mL and 1850 mL and 1520 mL.

With `OC[C@@H](O)[C@H](O)[C@@H](O)CO` [xylitol], the “acid production (change with time in pH of reaction mixture)” value in series [6] was “almost no acid”.
